# Assay results reported in patent US9809616B2, “Pyrimidine nucleosides and their monophosphate prodrugs for the treatment of viral infections and cancer” (Cocrystal Pharma, Inc., priority 2012, dated 2017).
# Test system: Huh-7 cells
# Experiment: LC/MS analysis of nucleotides formed after 4 hr incubation of 50 μM drug in Huh-7 cells
# Type: in vitro ADME
# Settings: 4 hr incubation in Huh-7 cells
# Protocol: Shown below are two examples of the LC/MS qualitative analysis of nucleotides formed after 4 h incubation of 50 μM N^4-hydroxycytidine nucleosides and N^4-hydroxycytidine monophosphate prodrugs in Huh-7 cells.
smiles,measurement,value
"C[C@@]1(O)[C@H](O)[C@@H](CO)O[C@H]1n1ccc(NO)nc1=O [Compound 37, 1-((2R,3R,4R,5R)-3,4-dihydroxy-5-(hydroxymethyl)-3-methyltetrahydrofuran-2-yl)-4-(hydroxyamino)pyrimidin-2(1H)-one]",Metabolite 2′-OH-2′-Me-U formed in cells,BLOQ
same,Metabolite 2′-OH-2′-Me-UDP formed in cells,BLOQ
same,Metabolite 2′-OH-2′-Me-UMP formed in cells,BLOQ
same,Metabolite 2′-OH-2′-Me-UTP formed in cells,BLOQ
same,Metabolite 36-DP formed in cells,BLOQ
same,Metabolite 36-MP formed in cells,BLOQ
same,Metabolite 36-TP formed in cells,BLOQ
same,Metabolite 36 formed in cells,BLOQ
same,Metabolite 37-DP formed in cells,BLOQ
same,Metabolite 37-MP formed in cells,BLOQ
same,Metabolite 37 in cells,BLOQ
"C[C@@]1(F)[C@H](O)[C@@H](CO)O[C@H]1n1ccc(NO)nc1=O [Compound 39, 1-((2R,3R,4R,5R)-3-fluoro-4-hydroxy-5-(hydroxymethyl)-3-methyltetrahydrofuran-2-yl)-4-(hydroxyamino)pyrimidin-2(1H)-one]",Metabolite 2′-F-2′-Me-U formed in cells,BLOQ
same,Metabolite 2′-F-2′-Me-UDP formed in cells,BLOQ
same,Metabolite 2′-F-2′-Me-UMP formed in cells,BLOQ
same,Metabolite 38-MP formed in cells,BLOQ
same,Metabolite 38 formed in cells,BLOQ
same,Metabolite 39-DP formed in cells,BLOQ
same,Metabolite 39-MP formed in cells,BLOQ
same,Metabolite 39-TP formed in cells,BLOQ
"CCOC(=O)[C@H](C)NP(=O)(OC[C@H]1O[C@@H](n2ccc(NO)nc2=O)[C@](C)(O)[C@@H]1O)Oc1ccccc1 (stereo partly drawn) [Compound 44, (2S)-ethyl 2-(((((2R,3R,4R,5R)-3,4-dihydroxy-5-(4-(hydroxyamino)-2-oxopyrimidin-1(2H)-yl)-4-methyltetrahydrofuran-2-yl)methoxy)(phenoxy)phosphoryl)amino)propanoate]",Metabolite 2′-OH-2′-Me-U formed in cells,BLOQ
same,Metabolite 2′-OH-2′-Me-UDP formed in cells,BLOQ
same,Metabolite 2′-OH-2′-Me-UMP formed in cells,BLOQ
same,Metabolite 36-MP formed in cells,BLOQ
same,Metabolite 36 formed in cells,BLOQ
same,Metabolite 37 in cells,BLOQ
same,Metabolite 44 (prodrug) in cells,13.3 ± 1.7 pmol/10^6 cells
"CCOC(=O)[C@H](C)NP(=O)(OC[C@H]1O[C@@H](n2ccc(NO)nc2=O)[C@](C)(F)[C@@H]1O)Oc1ccccc1 (stereo partly drawn) [Compound 51, (2S)-ethyl 2-(((((2R,3R,4R,5R)-4-fluoro-3-hydroxy-5-(4-(hydroxyamino)-2-oxopyrimidin-1(2H)-yl)-4-methyltetrahydrofuran-2-yl)methoxy)(phenoxy)phosphoryl)amino)propanoate]",Metabolite 2′-F-2′-Me-U formed in cells,BLOQ
same,Metabolite 2′-F-2′-Me-UDP formed in cells,BLOQ
same,Metabolite 2′-F-2′-Me-UMP formed in cells,BLOQ
same,Metabolite 51 (prodrug) in cells,71.5 ± 2.3 pmol/10^6 cells
